These results are taken from patent publication US20040132793A1, “Pyrazole derivatives” (Pfizer Inc., priority 2002, published 2004).

Data set [1] can be described thus: Metabolism in human liver microsomes. Format: in vitro ADME. The note with it: pH 7.4, human microsomes 0.5 μM cytochrome P450, substrate 1 μM, 37° C., 1 hour, read-out: t 1/2 (human microsomal). How it is done: (§1) A. Metabolism in Human Liver Microsomes and Supermix™ The metabolic vulnerability of the compounds of the invention in microsomes and Supermix™ may be assayed as follows. The microsomal fraction is isolated from several human livers and the P450 content determined. Supermix™ is obtained from Gentest. Human microsomes (0.5 μM cytochrome P450) and Supermix™ (0.05 μM cytochrome P450) are added to an incubation media containing 50 mM phosphate buffer (pH7.4), 5 mM MgCl2, 1 mM NADP and an NADPH generating system consisting of isocitrate and isocitrate dehydrogenase. The substrate concentration is 1 μM and incubations are carried out at 37° C. for 1 hour. Samples are taken at time points throughout this period and analysed using hplc-ms-ms assay.
Background: Liver microsomes are vesicles of endoplasmic reticulum, rich in cytochrome P450 enzymes.

A short description of another data set: Metabolism in Supermix. Format: in vitro ADME. The note with it: human, Supermix (Gentest), pH 7.4; Supermix 0.05 μM cytochrome P450; substrate 1 μM; 37° C., 1 hour; read-out: t 1/2 (Supermix). As for the experimental part:
as §1

The target in data set [2] is T1, purified recombinant HIV-1 reverse transcriptase (Human immunodeficiency virus type 1 group M subtype B, UniProt P04585).
T1 construct: purified recombinant HIV-1 reverse transcriptase (RT, EC, 2.7.7.49); made in house; host or cells: Escherichia coli
Description: Inhibition of HIV-1 reverse transcriptase enzyme. Format: biochemical. From the text:
The activity of the compounds of the invention as reverse transcriptase inhibitors may be measured using the following assay.
Inhibition of HIV-1 Reverse Transcriptase Enzyme
Using purified recombinant HIV-1 reverse transcriptase (RT, EC, 2.7.7.49) obtained by expression in Escherichia Coli, a 96-well plate assay system is established for assaying a large number of samples using either the Poly(rA)-oligo(dT) Reverse Transcriptase [3H]-SPA enzyme assay system (Amersham NK9020) or the [3H]-flashplate enzyme assay system (NEN-SMP 103) and following the manufacturer's recommendations. The compounds are dissolved in 100% DMSO and diluted with the appropriate buffer to a 5% final DMSO concentration. The inhibitory activity is expressed in percent inhibition relative to DMSO control.

The nature of data set [3]: Metabolism in human hepatocytes. Format: in vitro ADME. The conditions noted are these: cryopreserved human hepatocytes 1 million cells/ml; substrate 3 μM; 37° C., 3 hours. As for the experimental part: B. Metabolism in Human Hepatocytes.
The metabolic vulnerability of the compounds of the invention in human hepatocytes may be assayed as follows.
Cryopreserved human hepatocytes are obtained from In vitro Technologies, Inc. The hepatocytes are thawed and suspended at 1 million cells/ml in 50% Krebs-Heinsleit buffer: 50% Williams E media containing 10% foetal bovine serum. The substrate concentration is 3 μM and incubations are carried out at 37° C. for 3 hours. Samples are taken at time points throughout this period and analysed using hplc-ms-ms assay.

Take `Cc1c(Oc2cc(C#N)cc(C#N)c2)c(C2CC2)nn1CCO` [Example 1, 5-{[3-Cyclopropyl-1-(2-hydroxyethyl)-5-methyl-1H-pyrazol-4-yl]oxy}isophthalonitrile]: the half-life at 1 μM (in data set [1]; in “Metabolism in Supermix”) was above 2 h in each case. The IC50 (commonly the point on the concentration scale where inhibition reaches its midpoint) in data set [2] was 295 nM. Also, the unbound hepatocyte clearance in data set [3] is below 9 mL/min/kg.
